“And” between values parts separate entries of the source, which are not always exact repeats. Equal values may be shown once. “Also recorded” adds a separate entry of the source. Read-outs that look alike come from different tables or passages of the source.
Experiments:
[1] = test system: phospho-EGFR and downstream AKT, MAPK; assay: Western blotting, EGFR, AKT and MAPK phosphorylation in NSCLC cell lines; format: cell-based
Procedure: (§1) Next, they were washed out with cold PBS and lysed in 1 × cell lysis buffer [20 mM Tris-HCl (pH 7.5), 150 mM NaCl, 1 mM Na2EDTA, 1 mM EGTA, 1% Triton, 2.5 mM sodium pyrophosphate, 1 mM beta-glycerophosphate, 1 mM Na3VO4, 1 μg/ml leupeptin] (Cell signaling Technology) supplemented with Complete, Mini (Roche, Basel, Switzerland) to extract protein. After the protein concentration was measured, equal amounts of total protein (30 μg) were separated by SDS-PAGE and transferred to PVDF membranes. The proteins on membranes were incubated overnight at 4°C with the primary antibodies. The following secondary antibodies were used: goat antirabbit or antimouse IgG-conjugated horseradish peroxidase (HRP) (Santa Cruz Biotechnology, Santa Cruz, CA). To detect specific signals, the membranes were incubated by ECL plus Western Blotting Detection Reagents (Amersham Biosciences UK Limited, Buckinghamshire, UK).

PKA = test system: PKA; design: method as in earlier work; conditions: updated data; cited from earlier work
A549 = assay: MTS assay, A549
[2] = test system: HEK-293T with mutant EGFR (L858R); format: cell-based
Procedure: Drug sensitivity was determined by a modified MTS assay with CellTiter 96 AQueous One Solution Reagent (Promega, Madison, WI). Cells were generally seeded on 96-well plates at a density that would yield 80% confluence by the completion of the experiment, varying by each cell line from 3000 to 4000 per well. […] After that, MTS dye was added to each well. The cultures were incubated for another 1 hour at 37°C in a humidified atmosphere with 5% CO2. Optical densities of samples were measured at 490 nm using Immuno Mini NJ-2300 (Nalge Nunc International KK, Rochester, NY). Mean optical density at each drug concentration was calculated after discarding the highest and lowest values. […] IC50 values were expressed as mean and standard deviations. The assays were repeated until the standard deviation became less than the mean.

Tek = test system: Tek; design: method as in earlier work; conditions: updated data; cited from earlier work
PDGFR = test system: PDGFR; design: method as in earlier work; conditions: updated data; cited from earlier work
NCI-H2228 = assay: MTS assay, NCI-H2228
NCI-H1299 = assay: MTS assay, NCI-H1299
IGF-1R = test system: IGF-1R; design: method as in earlier work; conditions: updated data; cited from earlier work
NCI-H1975 = assay: MTS assay, NCI-H1975
ALK = conditions: updated data; cited from earlier work
Flt-3 = test system: Flt-3; design: method as in earlier work; conditions: updated data; cited from earlier work
c-Met = conditions: updated data; cited from earlier work
RPC-9 xenograft = RPC-9 xenograft mouse model; format: in vivo, BALB/c-nu/nu female nude mice; conditions: oral, once a day, 14 days, 30, 60 and 90 mg/kg, dose-dependent
Procedure: In this experiment, we used BALB/c-nu/nu female nude mice at 4–6 weeks of age that were purchased from Charles River Laboratories Japan, Inc (Yokohama, Japan). They were maintained under specific-pathogen-free conditions in accordance with the guidelines of the Animal Care and Use Committee at Okayama University. […] Every three days, body weight of the mice and the major axis and minor axis of each tumor were measured and calculated tumor volume using the following formula; (major axis) × (minor axis)^2 × 1/2 [37, 38]. For the 14 days, tumor volume, tumor growth rate and the body weight were analyzed as an average of the each group.

PC-9 = assay: MTS assay, PC-9
BRAF (V600E) = test system: BRAF (V600E); design: method as in earlier work; conditions: updated data; cited from earlier work
Insulin-R = test system: Insulin-R; design: method as in earlier work; conditions: updated data; cited from earlier work
phospho-IGF-IR = assay: Western blotting, IGF-IR phosphorylation after serum-starvation; format: cell-based; conditions: PC-9, RPC-9, NCI-H1299, NCI-H1819; regardless of IGF-I ligand stimulation; TAE226 two hours
Procedure: as §1

Syk = test system: Syk; design: method as in earlier work; conditions: updated data; cited from earlier work
NCI-H838 = assay: MTS assay, NCI-H838
phospho-FAK = assay: Western blotting, FAK phosphorylation in NSCLC cell lines; format: cell-based
Procedure: as §1

[3] = test system: phospho-EGFR and phospho-AKT; assay: Western blotting, EGFR and AKT phosphorylation in transfected HEK-293T; format: cell-based; conditions: HEK-293T cell with the mutant EGFR (L858R)
Procedure: as §1

[4] = EGFR-mutant cell lines PC-9, HCC827, NCI-H1975, RPC-9

With `CNC(=O)c1ccccc1Nc1nc(Nc2ccc(N3CCOCC3)cc2OC)ncc1Cl` [TAE226] the “phosphorylation of EGFR” value [1, 4] was “predominantly inhibited”, the “phosphorylations of AKT and MAPK” value [1, 4] was “inhibited” and the “phosphorylations of EGFR, AKT, and MAPK” value ([1]; cell lines with wild-type EGFR (NCI-H1299 and NCI-H1819)) was “not inhibited”. The IC50 (PKA) was greater than 10000 nM, the IC50 (A549; read-out: IC50 (μM) (mean ± SD), A549, KRAS Codon 12 (G12S), MTS, TAE226 48 hours, gefitinib 72 hours) was 1.4 ± 0.05 µM and the IC50 (A549; read-out: each IC50, A549, independent MTS assays) was 1.4 µM and 1.3 µM. The IC50 (A549; read-out: mean IC50, A549, mean of independent MTS assays) was 1.4 µM, the IC50 ([2]; HEK293T-L858R, independent MTS assays, read-out: each IC50) was 0.43 µM and the IC50 ([2]; Transfected HEK-293T, mutant EGFR (L858R), MTS, TAE226 48 hours, gefitinib 72 hours, read-out: IC50 (μM) (mean ± SD)) was 0.41 ± 0.06 µM. The IC50 (Tek) was 580 nM, the IC50 (PDGFR) was 2600 nM and the IC50 (NCI-H2228; read-out: IC50 (μM) (mean ± SD), NCI-H2228, EML4-ALK fusion Variant 3, MTS, TAE226 48 hours, gefitinib 72 hours) was 0.28 ± 0.001 µM. For the same compound, the IC50 (NCI-H2228; read-out: each IC50, NCI-H2228, independent MTS assays) was 0.28 µM, the IC50 (NCI-H2228; read-out: mean IC50, NCI-H2228, mean of independent MTS assays) was 0.28 µM and the IC50 (NCI-H1299; read-out: IC50 (μM) (mean ± SD), NCI-H1299, no alterations, MTS, TAE226 48 hours, gefitinib 72 hours) was 2.8 ± 0.26 µM. The IC50 (NCI-H1299; read-out: each IC50, NCI-H1299, independent MTS assays) was 3.1 µM and 3 µM and 2.7 µM and 2.4 µM, the IC50 (IGF-1R) was […] and the IC50 (NCI-H1975; read-out: IC50 (μM) (mean ± SD), NCI-H1975, EGFR Exon 21 (L858R) + T790M, MTS, TAE226 48 hours, gefitinib 72 hours) was 0.17 ± 0.02 µM. For the same compound, the IC50 (NCI-H1975; read-out: each IC50, NCI-H1975, independent MTS assays) was […], the IC50 (ALK) was […] and the IC50 (Flt-3) was […]. For the same compound, the IC50 (c-Met) was 160 nM, the “tumor volume / tumor growth compared with vehicle-treated mice” value (RPC-9 xenograft) was “significantly decreased; also recorded: significantly inhibited” and the IC50 (PC-9; read-out: IC50 (μM) (mean ± SD), PC-9, EGFR Exon 19 del (E746-A750), MTS, TAE226 48 hours, gefitinib 72 hours) was 0.16 ± 0.01 µM. The IC50 (PC-9; read-out: each IC50, PC-9, independent MTS assays) was […], the IC50 (PC-9; read-out: mean IC50, PC-9, mean of independent MTS assays) was 0.16 µM and the IC50 (BRAF (V600E)) was 1400 nM. The IC50 (Insulin-R) was 44 nM, the “phosphorylation of IGF-IR after serum-starvation” value (phospho-IGF-IR) was “completely inhibited” and the IC50 (Syk) was […]. For the same compound, the IC50 (NCI-H838; read-out: IC50 (μM) (mean ± SD), NCI-H838, no alterations, MTS, TAE226 48 hours, gefitinib 72 hours) was 6.2 ± 0.02 µM, the IC50 (NCI-H838; read-out: each IC50, NCI-H838, independent MTS assays) was 6.3 µM and 6.2 µM and the IC50 (NCI-H838; read-out: mean IC50, NCI-H838, mean of independent MTS assays) was 6.2 µM. For the same compound, the “concentration at which FAK phosphorylation was inhibited” value (phospho-FAK; data not shown) was […], the “phosphorylation of FAK (Thy397)” value (phospho-FAK; up to a concentration of 5 μM, PC-9, HCC827, NCI-H1975, RPC-9, NCI-H1299, NCI-H1819) was “not significantly inhibited; also recorded: not suppressed” and the “phosphorylations of EGFR and AKT” value [3] was “inhibited”.

Source: paper PMC4474554 (PLoS ONE, 2015)
